melting point | Compound
172 to 173 °C | COC(=O)c1cc(F)c(N2CCN(C(C)=O)CC2)nc1Nc1ccc(F)cc1F
144 to 146 °C | Nc1cc(Cl)c(N2CCC(N3CCOCC3)CC2)c(Cl)c1
158 to 161 °C | CCCCn1c(C)nc(N2CCc3ccccc3CC2)c([N+](=O)[O-])c1=O
212 to 214 °C | CC(=O)NCC1CN(c2ccc(N3CCN(c4nnc(C)o4)CC3)c(F)c2)C(=O)O1 (stereo unspecified)
211 to 213 °C | CSc1ccc(N2CCN(c3c(C)c(C)c4c(c3C)CC(C)(C)O4)CC2)cc1
145 °C | O=Cc1ccccc1SSc1ccccc1C=O
295 to 297 °C | Nc1nc(N)c2ncn(OCCCCP(=O)(O)O)c2n1
166 °C | CNC(=S)NCCN1CCCCC1
153 to 154 °C | CC(C)C[C@H](N)[C@@H](O)CCS(=O)(=O)CCc1ccccc1
158 °C | CCOC(=O)c1c(CC(=O)O)n(-c2ccc(OC(C)C)cc2)c2ccc(Oc3ccc(C(F)(F)F)cc3)cc12
162 °C | O=C(c1ccccc1)c1ccc2sc(NCCCO)nc2c1
195 °C | CCC1c2c(ncn2CC)CCN1C(=S)NC(C)C (stereo unspecified)
241 to 242 °C | CC1(C)CN(C(=O)c2cc3c(C(=O)OC(C)(C)C)ncn3c3ccc(Cl)cc23)CC(C)(C)N1
240 to 244 °C | O=c1[nH]c2nc(SCc3ccccc3)ncc2cc1Oc1ccc(F)cc1F
205 to 207 °C | O=C(Nc1ccc(C(=O)N2Cc3ccccc3Cc3ccccc32)cc1)c1ccc(C(F)(F)F)cc1
87.9 to 88.4 °C | CCOc1ccc(-n2nnnc2C(F)(F)F)cc1C=O
111 to 113 °C | CCC(Oc1ccc(S(=O)(=O)c2ccc(C)nc2Nc2c(C)cc(C)cc2C)cc1)C(=O)OC (stereo unspecified)
184 to 188 °C | O=C1c2c(O)ccc(O)c2-c2nn(CC(O)CO)c3ccc(NCCNCCO)c1c23 (stereo unspecified)
246 to 248 °C | CS(=O)(=O)Cc1cccc(CNC(=O)c2nc3scc(COCc4ccc(C(=O)O)cc4)c3c(=O)[nH]2)c1
211 to 213 °C | CCCc1ccc(-c2cc(NC(=O)C3Cc4ccccc4C3)n[nH]2)cc1
226 to 228 °C | C=CCOC(=O)c1cccc(C2=Nc3cc(C)c(-c4cccc(CF)c4)cc3NC(=O)C2)c1
190 to 195 °C | Cc1n[nH]c(-c2cc(Cl)ccc2N)n1
192 to 195 °C | CCCOCCOc1ccc(-c2ccc3c(c2)C=C(C(=O)Nc2ccc(CN(C)C4CCOCC4)cc2)CCS3(=O)=O)cc1C
220 to 221 °C | COc1cccc(Cn2nc(C(=O)O)c3c2-c2ccc(OCc4cncnc4)cc2CC3)c1

melting point | Compound
186 to 187 °C | COc1c(C=O)c2cc(Cl)c(Cl)cc2n1C1CC(O)C(CO)O1 (stereo unspecified)
197 to 199 °C | CSc1nc(N)c2nsnc2n1
211 to 213 °C | O=C1c2ccccc2C(=O)N1C1CCCn2c1nc(-c1ccncc1)cc2=O (racemic)
141 to 147 °C | CC(=O)N(CCC(CCN1CCCCC1)(C(N)=O)c1ccccc1Cl)C(C)C (stereo unspecified)
181 to 183 °C | COc1ccc2c(c1)CNN=C2Cc1c(Cl)cncc1Cl
135 to 137 °C | COc1cc(-c2csc(CN(C)C(=O)OC(C)(C)C)n2)cc(OC)c1OC(C)=O
177 to 179 °C | Cc1nc(N2CCc3ccccc3CC2)c(C#N)c(=O)n1C1CC1
245 to 255 °C | CC(=O)N1CCc2cc([N+](=O)[O-])cc(C#N)c21
185 to 189 °C | CC(C)(C)OC(=O)N1CCN(c2cc(Cl)ccc2NC(=O)c2ccnc(Cl)c2)CC1
94 to 96.5 °C | CCOC(=O)C(CC#Cc1ccccc1)(NC(C)=O)C(=O)OCC
292 to 294 °C | CC(C)(C)Nc1c(NCc2ccc(OC(F)(F)F)cc2)c(=O)c1=O
59 to 61 °C | C[C@H](NC(=O)c1cccnc1Oc1ccc(F)cc1)c1cccs1
168 to 169 °C | CCCCCCCCCOC1C(O)C(CO)OC1n1cnc2c(=O)[nH]c(NC(=O)C(C)C)nc21 (stereo unspecified)
177 to 179 °C | CN(C)c1cc(C(=O)CS(C)(=O)=O)cc(N(C)C)c1C(C)(C)C
167 to 170 °C | COc1cc(OC)cc(-c2nnc(-c3cc(OC)cc(OC)c3)o2)c1
100 to 108 °C | COCC[C@H]1CN(c2cc(C)cc3c2C=Nc2ccccc2N3)CCN1C
119 °C | COC(=O)Cc1cc(C(=O)c2ccccc2Cl)ccc1O
140 to 141 °C | FC(F)(F)c1nnc2sc3ccccc3n12
158 °C | N#CC1=C(c2ccccc2)Nc2n[nH]cc2C1c1ccccc1Cl (stereo unspecified)
182 to 184 °C | CN(c1cnc(-c2ccccc2)c(-c2ccccc2)n1)C1CCc2c(OCC(=O)O)cccc21 (stereo unspecified)
124 to 126 °C | C=CCCO[C@@H](Cc1ccc(OCCc2nc(-c3ccc(C(C)C)cc3)oc2C)c2ccsc12)C(=O)O
229 °C | C=C1CCCC2CCC3C(CCC4(C)C3C(C#N)C35OCCOC43OCCO5)C12C (stereo unspecified)
50 °C | COC(=O)CCCCOc1ccc(CNC(=O)C2Cc3ccccc3N2S(=O)(=O)c2ccc(-c3cccc(C(F)(F)F)c3)cc2)cc1 (stereo unspecified)
123 to 125 °C | N#CCC(=O)NCc1cccc(Cl)c1

melting point | Compound
237 to 239 °C | CN1CC[C@@H](c2c(O)cc(O)c3c(=O)cc(-c4cccc(F)c4Br)oc23)[C@@H]1CO
130 to 131 °C | C=CCc1cc2c(cc1O)CC(=O)N2CC
184 to 185 °C | O=C(O)c1c(OCc2cccc(OCc3ccc4ccccc4n3)c2)cccc1C(F)(F)F
99 to 102 °C | CC(C)C(=O)N1C2=NC(C)(C)N(C)C(=O)N2c2ccccc21
63 to 68 °C | CCOC(=O)c1ccc(OCCCCCCc2cccc(O)c2O)cc1O
205 to 206 °C | COc1ccc(S(=O)(=O)N(C)c2cccc(-c3ccnc4c([N+](=O)[O-])cnn34)c2)cc1
125 to 127 °C | CC(C)Cc1ccc2ccc(N)nc2n1
109 to 123 °C | O=C(O)c1ccccc1Oc1ccccc1C1CCCCC1
205 to 206 °C | COc1ccc(-c2nc(-c3ccc(OC)cc3)nc(-c3ccccc3O)n2)cc1
223 to 224 °C | Cc1nc2c(s1)-c1nc(Nc3ccccc3)ncc1CC2
143 to 145 °C | Nc1sccc1C(=O)c1cccc(C(F)(F)F)c1
240 to 242 °C | CN(C)S(=O)(=O)c1ccc2c(c1)S(=O)(=O)NC(C(F)(F)F)=N2
170 to 178 °C | O=S(=O)(Nc1ccc(OCc2ccc3ccccc3n2)cc1)c1c(F)c(F)c(F)c(F)c1F
242 °C | O=c1cc(-n2ccnc2)c2cc(C(c3ccc(Cl)cc3)n3ccnc3)ccc2[nH]1 (stereo unspecified)
124 °C | O=C(Cc1cccc2ccccc12)Nc1cc([C@H]2C[C@@H](NC(=O)c3cccc([N+](=O)[O-])c3)C2)[nH]n1
278 to 281 °C | Cc1nc(=O)[nH]c2ccc(N(C)C)cc12
212 to 215 °C | Cc1n[nH]c(=O)c(-c2c(F)cc(F)cc2F)c1Cc1ccc(Cl)cc1
110 to 111 °C | COC(=O)C1C=CCn2c(=O)n(CSC(C)=O)c(=O)n21 (stereo unspecified)
98.5 to 99.5 °C | Cc1c(S(=O)(=O)C[N+](=O)[O-])cc2c(c1C)OC(C)(C)CC2
132 to 134 °C | O=c1c(-c2ccccc2)coc2ccccc12
162 to 164 °C | CNCCCNC(=O)c1[nH]c(-c2ccccc2)c2cc(Cl)ccc12
154 to 156 °C | CC(C#Cc1ccc(C(=O)Cc2ccc(F)cc2)o1)N(O)C(N)=O (stereo unspecified)
200 to 202 °C | N#CCN1c2ccc([N+](=O)[O-])cc2CS1(=O)=O
156 °C | CCOC(=O)c1c(N2CCN(C)CC2)c2cc(F)ccc2n(Cc2ccccc2)c1=O

melting point | Compound
134 to 135 °C | CCOC(=O)C(C#N)=CC=CN(C)C
65 to 69 °C | C=CCOC(=O)NC(C)(C)c1ccc(-c2nc(Nc3ccc(CCN4CCOCC4)cc3)ncc2Cl)cc1
102 to 104 °C | CN(C)c1ccc(OCC(=O)N[C@@H](CC(N)=O)C(=O)N[C@@H](Cc2ccccc2)[C@H](O)C(=O)N2CCC[C@H]2C(=O)NC(C)(C)C)cc1
131 to 133 °C | COc1cc(/C=C2/C(=O)N(C)C(=O)/C2=C/c2ccccc2)cc(OC)c1OC
66 to 68 °C | O=C(O)C(F)c1ccc(Cl)cc1 (stereo unspecified)
166 to 168 °C | C=CS(=O)(=O)NCCCc1ccc(-c2ccc(=O)[nH]n2)cc1
113 °C | Fc1ccc(Cn2c(NC3CCN(CCNc4nc5ccccc5n4Cc4ccc(Cl)c(Cl)c4)CC3)nc3ccccc32)cc1
297 to 304 °C | O=C(O)c1ccc2c(c1)S(=O)(=O)c1ccccc1S2
65 to 75 °C | CC(C)(C)OC(=O)N1CCC(CN2C(=O)C3(COc4cc5c(cc43)C(C)(C)CO5)c3ccccc32)CC1 (stereo unspecified)
155 to 157 °C | O=C(Nc1ccccc1C(c1ccc(O)cc1)c1ccc(O)cc1)C12CC3CC(CC1C3)C2
230 to 235 °C | O=C(C=Cc1ccc(Cl)cc1)NN1CC(=O)NC1=O
129 to 130 °C | COc1cc(C=O)ccc1OCc1csc(N2CCCCC2)n1
217 to 218 °C | CC1(C)OCC(C(O)CNC(=O)c2cc(C(=O)NCC(O)C3COC(C)(C)O3)cc(S(=O)(=O)Nc3ccc(F)c(C(F)(F)F)c3)c2)O1 (stereo unspecified)
170 to 175 °C | CC1CN(c2ccc(S(N)(=O)=O)cc2)CC(C)N1CCC1OCCc2ccccc21 (stereo unspecified)
162 to 164 °C | CCOC(=O)c1cc(CN2C(=O)C3(COc4cc5c(cc43)OCO5)c3ccccc32)oc1C(F)(F)F (stereo unspecified)
137 to 138 °C | CC(C)C1C(=O)OC(=O)N1c1ccc(Cl)cc1 (stereo unspecified)
147 °C | CC1CCN(c2c(-c3c(F)cc(F)cc3F)c(Cl)nc3nc(SCc4ccccc4)nn23)CC1
217 to 218 °C | Cc1c(NC(=O)c2ccc(-c3cc4ccccc4o3)cc2)ccc2cc(CN3CCCC3)cnc12
259 to 261 °C | O=[N+]([O-])c1ccc2c(C3=CCC4(CC3)OCCO4)c[nH]c2c1
140 to 142 °C | CS(=O)(=O)c1ccc(C2=C(c3ccc(F)cc3)CC3(CC3)C2)cc1
131 to 132 °C | CCOC(=O)C1=C(C)NC(COCCN)=C(C(=O)OC)C1c1cccc(Cl)c1Cl (stereo unspecified)
148 to 150 °C | Cc1ccccc1N1CCc2c(C)nc3ccccc3c21

Compound | melting point
O=C1Nc2ccccc2Sc2ccccc21 | 258 to 259 °C
COCNC(=O)C1C(c2ccc(F)cc2)CC2CCC1N2C (stereo unspecified) | 140 to 142 °C
